Test results reported in the supplement of paper PMC11061612.

Legend:
Experiment in all cases: Bliss excess, mean over the matrix (fraction); higher = more synergy
[1] = tested on: BxPC-3 (Pancreatic Carcinoma)
Summary of the method: (§1)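 Bliss excess equals the observed combination effect minus the expected value EA + EB − EA·EB, where EA and EB are the effects of each agent alone. Combination Emax is the second-highest inhibition within the matrix. Inhibition was scaled from CellTiter-Glo 2.0 luminescence, with 0 set by vehicle wells and 1 by blank wells, after 72 hours of two-drug dosing of cells plated in 1536-well plates.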

[2] = tested on: HT-1080 (Other Solid Carcinomas)
Summary of the method: as §1

[3] = tested on: IST-MEL1 (Melanoma)
Summary of the method: as §1

[4] = tested on: KALS-1 (Glioblastoma)
Summary of the method: as §1

[5] = tested on: MM1S (Plasma Cell Myeloma)
Summary of the method: as §1

[6] = tested on: NCI-H226 (Mesothelioma)
Summary of the method: as §1

[7] = tested on: PA-TU-8988T (Pancreatic Carcinoma)
Summary of the method: as §1

[8] = tested on: PL4 (Pancreatic Carcinoma)
Summary of the method: as §1

[9] = tested on: SAT (Head and Neck Carcinoma)
Summary of the method: as §1

[10] = tested on: SNU-407 (Colorectal Carcinoma)
Summary of the method: as §1

[11] = tested on: T47D (Breast Carcinoma)
Summary of the method: as §1

[12] = tested on: T84 (Colorectal Carcinoma)
Summary of the method: as §1

[13] = tested on: TUR (Acute Myeloid Leukemia)
Summary of the method: as §1

[14] = tested on: UACC-257 (Melanoma)
Summary of the method: as §1

Row | SMILES | Bliss excess [1] | Bliss excess [2] | Bliss excess [3] | Bliss excess [4] | Bliss excess [5] | Bliss excess [6] | Bliss excess [7] | Bliss excess [8] | Bliss excess [9] | Bliss excess [10] | Bliss excess [11] | Bliss excess [12] | Bliss excess [13] | Bliss excess [14]
1 | CC1(C)CCC(CN2CCN(c3ccc(C(=O)NS(=O)(=O)c4ccc(NCC5CCOCC5)c([N+](=O)[O-])c4)c(Oc4cnc5[nH]ccc5c4)c3)CC2)=C(c2ccc(Cl)cc2)C1 [Venetoclax] + Cn1cnc2c(F)c(Nc3ccc(Br)cc3Cl)c(C(=O)NOCCO)cc21 [Selumetinib] (first compound max 1 µM, 7x7, partner max 3 µM) | 0.0009 | -0.0351 | -0.0654 | -0.0415 | 0.0456 | -0.0799 | -0.021 | -0.0236 | 0.0334 | -0.0275 | -0.0624 | -0.061 | -0.024 | -0.0487
2 | CC1(C)CCC(CN2CCN(c3ccc(C(=O)NS(=O)(=O)c4ccc(NCC5CCOCC5)c([N+](=O)[O-])c4)c(Oc4cnc5[nH]ccc5c4)c3)CC2)=C(c2ccc(Cl)cc2)C1 [Venetoclax] + C[C@@H](Nc1cc(F)cc(F)c1)c1cc(C(=O)N(C)C)cc2c(=O)cc(N3CCOCC3)oc12 [AZD8186] (first compound max 1 µM, 7x7, partner max 3 µM) | -0.0115 | -0.0311 | 0.0253 | 0.0015 | 0.0377 | -0.0577 | 0.0383 | -0.049 | 0.0036 | -0.0471 | -0.0159 | -0.0284 | 0.0157 | -0.0538
3 | C[C@@H](c1ccc2nccn2c1)n1nnc2ncc(-c3cnn(C)c3)nc21 [Savolitinib] + CN(CC[C@H](CSC1=CC=CC=C1)NC2=C(C=C(C=C2)S(=O)(=O)NC(=O)C3=CC=C(C=C3)N4CCC(CC4)[C@H](C5=CC=CC=C5C6=CC=C(C=C6)Cl)O)S(=O)(=O)C(F)(F)F)CCO [AZD4320] (first compound max 1 µM, 7x7, partner max 1 µM) | – | -0.0522 | – | – | -0.034 | – | -0.0581 | -0.0801 | -0.0345 | -0.319 | 0 | – | -0.0188 | -0.0529
4 | CCc1c2c(nc3ccc(O)cc13)-c1cc3c(c(=O)n1C2)COC(=O)[C@]3(O)CC [SN-38] + O=C(c1cc(Cc2n[nH]c(=O)c3ccccc23)ccc1F)N1CCN(C(=O)C2CC2)CC1 [Olaparib] (first compound max 0.3 µM, 7x7, partner max 10 µM) | -0.005 | 0.0978 | 0.0125 | 0.069 | – | -0.0493 | 0.023 | 0.0386 | 0.0387 | – | 0.0623 | -0.0279 | 0.0429 | 0.0213
5 | Cc1c2c(nn1C)CSCc1cc(n(C)n1)CSc1cc(c3ccccc3c1)OCCCc1c(C(=O)O)n(C)c3c-2c(Cl)ccc13 [AZD5991] + CN(C)CCCOc1ccc(-c2ccc3ncc4c(c3c2)n(C2CCOCC2)c(=O)n4C)cn1 [AZD0156] (first compound max 1 µM, 7x7, partner max 1 µM) | 0.0229 | -0.0148 | -0.0282 | 0.0151 | 0.0391 | 0.0125 | 0.0146 | 0.056 | -0.0186 | -0.463 | 0.0093 | -0.0112 | 0.0377 | -0.0064
6 | CC1(C)CCC(CN2CCN(c3ccc(C(=O)NS(=O)(=O)c4ccc(NCC5CCOCC5)c([N+](=O)[O-])c4)c(Oc4cnc5[nH]ccc5c4)c3)CC2)=C(c2ccc(Cl)cc2)C1 [Venetoclax] + COc1cc(Nc2ncc3c(n2)-c2ccc(Cl)cc2C(c2c(F)cccc2OC)=NC3)ccc1C(=O)O [Alisertib] (first compound max 1 µM, 7x7, partner max 10 µM) | -0.0291 | 0.0087 | -0.0547 | -0.0642 | 0.078 | -0.089 | 0.0042 | -0.0531 | -0.0525 | -0.0296 | -0.0093 | 0.0136 | 0.077 | -0.0234
7 | COc1cccc(OCCCN)c1-c1cc(Nc2cnc(C#N)cn2)n[nH]1 [Prexasertib] + CN(C)CCCOc1ccc(-c2ccc3ncc4c(c3c2)n(C2CCOCC2)c(=O)n4C)cn1 [AZD0156] (first compound max 1 µM, 7x7, partner max 1 µM) | -0.0582 | 0.0241 | -0.05 | -0.0669 | -0.0718 | -0.0611 | 0.0179 | -0.0387 | -0.0158 | -0.0146 | -0.0302 | 0.0016 | 0.013 | 0.0044
8 | CN(CCO)CC[C@H](CSc1ccccc1)Nc1ccc(S(=O)(=O)NC(=O)c2ccc(N3CCC([C@@H](O)c4ccccc4-c4ccc(Cl)cc4)CC3)cc2)cc1S(=O)(=O)C(F)(F)F [AZD4320] + C=CCn1c(=O)c2cnc(Nc3ccc(N4CCN(C)CC4)cc3)nc2n1-c1cccc(C(C)(C)O)n1 [AZD1775] (first compound max 1 µM, partner max 1 µM) | 0.0575 | -0.0354 | 0.0339 | 0.0252 | 0.0981 | -0.025 | 0.0011 | -0.0586 | -0.0251 | -0.0677 | -0.0509 | -0.0408 | 0.0015 | -0.0419
9 | COc1cccc(OCCCN)c1-c1cc(Nc2cnc(C#N)cn2)n[nH]1 [Prexasertib] + C[C@@H]1COCCN1C2=NC(=NC(=C2)C3(CC3)[S@](=N)(=O)C)C4=C5C=CNC5=NC=C4 [AZD6738] (first compound max 1 µM, 7x7, partner max 10 µM) | -0.0535 | -0.0089 | -0.0131 | -0.0557 | -0.0953 | 0.01 | 0.0224 | -0.0024 | -0.0238 | -0.0094 | 0.0003 | -0.0026 | 0.0298 | 0.0005
10 | CC(=O)Nc1cccc(-n2c(=O)n(C3CC3)c(=O)c3c(Nc4ccc(I)cc4F)n(C)c(=O)c(C)c32)c1 [Trametinib] + Cc1nc(-c2cn3c(n2)-c2ccc(-c4cnn(C(C)(C)C(N)=O)c4)cc2OCC3)n(C(C)C)n1 [Taselisib] (first compound max 1 µM, 7x7, partner max 10 µM) | 0.354 | 0.0288 | 0.122 | 0.0751 | 0.119 | 0.003 | 0.173 | 0.0796 | -0.0373 | 0.0236 | 0.0046 | 0.233 | 0.157 | 0.0443
11 | Cc1c2c(nn1C)CSCc1cc(n(C)n1)CSc1cc(c3ccccc3c1)OCCCc1c(C(=O)O)n(C)c3c-2c(Cl)ccc13 [AZD5991] + CCN(CCO)CCCOc1ccc2c(Nc3cc(CC(=O)Nc4cccc(F)c4)[nH]n3)ncnc2c1 [AZD2811] (first compound max 1 µM, 7x7, partner max 1 µM) | 0.0412 | 0.0096 | 0.0931 | -0.0294 | 0.134 | 0.0097 | 0.0689 | 0.0467 | 0.101 | -0.034 | -0.0096 | 0.0441 | 0.121 | –
12 | Cc1cc2ncnn2cc1Nc1ncc2c(n1)n(C1CCOCC1)c(=O)n2C [AZD7648] + C[C@@H]1COCCN1C2=NC(=NC(=C2)C3(CC3)[S@](=N)(=O)C)C4=C5C=CNC5=NC=C4 [AZD6738] (first compound max 10 µM, 7x7, partner max 10 µM) | 0.0044 | -0.0459 | -0.0172 | 0.0135 | 0.014 | 0.046 | 0.003 | -0.0396 | 0.0561 | -0.0207 | 0.0444 | 0.0189 | 0.0024 | 0.0075
13 | CN(CCO)CC[C@H](CSc1ccccc1)Nc1ccc(S(=O)(=O)NC(=O)c2ccc(N3CCC([C@@H](O)c4ccccc4-c4ccc(Cl)cc4)CC3)cc2)cc1S(=O)(=O)C(F)(F)F [AZD4320] + C[C@@H]1COCCN1C2=NC(=NC(=C2)C3(CC3)[S@](=N)(=O)C)C4=C5C=CNC5=NC=C4 [AZD6738] (first compound max 1 µM, 7x7, partner max 10 µM) | 0.0373 | 0.0171 | -0.0336 | -0.0784 | -0.0008 | -0.0819 | -0.0006 | -0.066 | – | -0.0568 | -0.0566 | -0.0344 | -0.014 | -0.0663
14 | CC(=O)c1c(C)c2cnc(Nc3ccc(N4CCNCC4)cn3)nc2n(C2CCCC2)c1=O [Palbociclib] + CN(CC[C@H](CSC1=CC=CC=C1)NC2=C(C=C(C=C2)S(=O)(=O)NC(=O)C3=CC=C(C=C3)N4CCC(CC4)[C@H](C5=CC=CC=C5C6=CC=C(C=C6)Cl)O)S(=O)(=O)C(F)(F)F)CCO [AZD4320] (first compound max 10 µM, 7x7, partner max 1 µM) | – | -0.121 | – | – | -0.0634 | – | -0.0213 | -0.0826 | -0.0941 | -0.0556 | -0.0628 | – | -0.0635 | -0.0668
15 | COc1nnc2ccc(N3CCC(c4ccc(OCCN5CCN(C)C(=O)[C@H]5C)cc4)CC3)nn12 [AZD5153] + CN(CC[C@H](CSC1=CC=CC=C1)NC2=C(C=C(C=C2)S(=O)(=O)NC(=O)C3=CC=C(C=C3)N4CCC(CC4)[C@H](C5=CC=CC=C5C6=CC=C(C=C6)Cl)O)S(=O)(=O)C(F)(F)F)CCO [AZD4320] (first compound max 1 µM, 7x7, partner max 1 µM) | – | -0.0277 | – | – | 0.0694 | – | 0.048 | 0.0732 | 0.0464 | 0.0156 | 0.055 | – | 0.0533 | 0.0654
16 | Cc1c2c(nn1C)CSCc1cc(n(C)n1)CSc1cc(c3ccccc3c1)OCCCc1c(C(=O)O)n(C)c3c-2c(Cl)ccc13 [AZD5991] + C[C@@H](Nc1cc(F)cc(F)c1)c1cc(C(=O)N(C)C)cc2c(=O)cc(N3CCOCC3)oc12 [AZD8186] (first compound max 1 µM, 7x7, partner max 3 µM) | -0.0059 | -0.0338 | -0.0184 | 0.012 | 0.0187 | -0.0268 | 0.0295 | 0.0356 | -0.0731 | -0.0139 | -0.0323 | – | 0.0047 | -0.0234
17 | Cc1c2c(nn1C)CSCc1cc(n(C)n1)CSc1cc(c3ccccc3c1)OCCCc1c(C(=O)O)n(C)c3c-2c(Cl)ccc13 [AZD5991] + Cn1cnc2c(F)c(Nc3ccc(Br)cc3Cl)c(C(=O)NOCCO)cc21 [Selumetinib] (first compound max 1 µM, 7x7, partner max 3 µM) | 0.0457 | 0.0108 | – | -0.0897 | 0.0828 | -0.0684 | 0.0457 | -0.0325 | 0.0193 | 0.0342 | -0.0092 | 0.0438 | 0.0408 | 0.0215
